Test results from PubChem BioAssay AID1963441 (Molecular Pharmacology Branch, DTP, NCI, 2024).

Test system: NCI-H1876 complex spheroid growth, % test/control
Experiment: Anticancer human tumor NCI-H1876 cell line growth inhibition [Asc];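 note: compound exposure lasted 7 days starting three days after seeding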;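 for viability, T/C: 100% = DMSO vehicle control wells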
Conditions: for IC50: curve of first compound; for viability, T/C: stronger effect = lower value
In short: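 Complex solid-tumor spheroids incorporating human endothelial and mesenchymal stem cells received single agents or combinations over half-log dilution ranges anchored to clinical Cmax.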

[1] = second compound 0.0316 µM, first compound 0.0316 µM
[2] = second compound 0.0316 µM, first compound 0.1 µM
[3] = second compound 0.0316 µM, first compound 0.316 µM
[4] = second compound 0.0316 µM, first compound 1 µM
[5] = second compound 0.1 µM, first compound 0.0316 µM
[6] = second compound 0.1 µM, first compound 0.1 µM
[7] = second compound 0.1 µM, first compound 0.316 µM
[8] = second compound 0.1 µM, first compound 1 µM
[9] = second compound 0.316 µM, first compound 0.0316 µM
[10] = second compound 0.316 µM, first compound 0.1 µM
[11] = second compound 0.316 µM, first compound 0.316 µM
[12] = second compound 0.316 µM, first compound 1 µM
[13] = second compound 1 µM, first compound 0.0316 µM
[14] = second compound 1 µM, first compound 0.1 µM
[15] = second compound 1 µM, first compound 0.316 µM
[16] = second compound 1 µM, first compound 1 µM
[17] = second compound 3.16 µM, first compound 0.0316 µM
[18] = second compound 3.16 µM, first compound 0.1 µM
[19] = second compound 3.16 µM, first compound 0.316 µM
[20] = second compound 3.16 µM, first compound 1 µM
[21] = second compound 10 µM, first compound 0.0316 µM
[22] = second compound 10 µM, first compound 0.1 µM
[23] = second compound 10 µM, first compound 0.316 µM
[24] = second compound 10 µM, first compound 1 µM

C#Cc1c(F)ccc2cc(O)cc(-c3ncc4c(N5CC6CCC(C5)N6)nc(OCC56CCCN5CC(F)C6)nc4c3F)c12 (centres undefined) + Cc1c(S(C)(=O)=O)c(-c2cc(F)cc(N3CCN(c4ccc(NS(=O)(=O)c5ccc(NC(CCN6CCC(C(=O)OCCCP(=O)(O)O)CC6)CSc6ccccc6)c(S(=O)(=O)C(F)(F)F)c5)cc4)CC3)c2)c(-c2ccc(Cl)cc2)n1C(C)C
IC50 (second compound 0.0316 µM): > 10 µM | IC50 (second compound 0.1 µM): > 10 µM | IC50 (second compound 0.316 µM): > 10 µM | IC50 (second compound 1 µM): > 10 µM | IC50 (second compound 3.16 µM): > 10 µM | IC50 (second compound 10 µM): > 10 µM | viability, T/C [1]: 98.7% | viability, T/C [2]: 84.9% | viability, T/C [3]: 108% | viability, T/C [4]: 91.2% | viability, T/C (second compound 0.0316 µM, first compound 3.16 µM): 96.8% | viability, T/C (second compound 0.0316 µM, first compound 10 µM): 92.9% | viability, T/C [5]: 92.2% | viability, T/C [6]: 101% | viability, T/C [7]: 99.3% | viability, T/C [8]: 83.1% | viability, T/C (second compound 0.1 µM, first compound 3.16 µM): 90.6% | viability, T/C (second compound 0.1 µM, first compound 10 µM): 88% | viability, T/C [9]: 106% | viability, T/C [10]: 90.5% | viability, T/C [11]: 85.5% | viability, T/C [12]: 90.7% | viability, T/C (second compound 0.316 µM, first compound 3.16 µM): 86.5% | viability, T/C (second compound 0.316 µM, first compound 10 µM): 86.7% | viability, T/C [13]: 90% | viability, T/C [14]: 97.8% | viability, T/C [15]: 102% | viability, T/C [16]: 92% | viability, T/C (second compound 1 µM, first compound 3.16 µM): 88.2% | viability, T/C (second compound 1 µM, first compound 10 µM): 73.5% | viability, T/C [17]: 101% | viability, T/C [18]: 108% | viability, T/C [19]: 89.5% | viability, T/C [20]: 87.4% | viability, T/C (second compound 3.16 µM, first compound 3.16 µM): 87.3% | viability, T/C (second compound 3.16 µM, first compound 10 µM): 74.7% | viability, T/C [21]: 93.2% | viability, T/C [22]: 99.4% | viability, T/C [23]: 109% | viability, T/C [24]: 93.6% | viability, T/C (second compound 10 µM, first compound 3.16 µM): 95.8% | viability, T/C (second compound 10 µM, first compound 10 µM): 77%

CNC(C)C(=O)NC1CN(S(=O)(=O)c2cccc(S(=O)(=O)N3CCC4CCC(C(=O)NC(c5ccccc5)c5ccccc5)N4C(=O)C(NC(=O)C(C)NC)C3)c2)CCC2CCC(C(=O)NC(c3ccccc3)c3ccccc3)N2C1=O (centres undefined) + Cc1c(S(C)(=O)=O)c(-c2cc(F)cc(N3CCN(c4ccc(NS(=O)(=O)c5ccc(NC(CCN6CCC(C(=O)OCCCP(=O)(O)O)CC6)CSc6ccccc6)c(S(=O)(=O)C(F)(F)F)c5)cc4)CC3)c2)c(-c2ccc(Cl)cc2)n1C(C)C
IC50 (second compound 0.0316 µM): > 1 µM | IC50 (second compound 0.1 µM): > 1 µM | IC50 (second compound 0.316 µM): > 1 µM | IC50 (second compound 1 µM): > 1 µM | IC50 (second compound 3.16 µM): > 1 µM | IC50 (second compound 10 µM): > 1 µM | viability, T/C (second compound 0.0316 µM, first compound 0.00316 µM): 95.1% | viability, T/C (second compound 0.0316 µM, first compound 0.01 µM): 96.4% | viability, T/C [1]: 98% | viability, T/C [2]: 97.8% | viability, T/C [3]: 103% | viability, T/C [4]: 103% | viability, T/C (second compound 0.1 µM, first compound 0.00316 µM): 91.3% | viability, T/C (second compound 0.1 µM, first compound 0.01 µM): 96.2% | viability, T/C [5]: 95% | viability, T/C [6]: 98.8% | viability, T/C [7]: 105% | viability, T/C [8]: 98.7% | viability, T/C (second compound 0.316 µM, first compound 0.00316 µM): 101% | viability, T/C (second compound 0.316 µM, first compound 0.01 µM): 102% | viability, T/C [9]: 97.2% | viability, T/C [10]: 97.3% | viability, T/C [11]: 103% | viability, T/C [12]: 104% | viability, T/C (second compound 1 µM, first compound 0.00316 µM): 94% | viability, T/C (second compound 1 µM, first compound 0.01 µM): 91.6% | viability, T/C [13]: 91.6% | viability, T/C [14]: 100% | viability, T/C [15]: 112% | viability, T/C [16]: 92.7% | viability, T/C (second compound 3.16 µM, first compound 0.00316 µM): 99.9% | viability, T/C (second compound 3.16 µM, first compound 0.01 µM): 87.2% | viability, T/C [17]: 96.1% | viability, T/C [18]: 88.1% | viability, T/C [19]: 101% | viability, T/C [20]: 91.8% | viability, T/C (second compound 10 µM, first compound 0.00316 µM): 97.4% | viability, T/C (second compound 10 µM, first compound 0.01 µM): 97.4% | viability, T/C [21]: 88.3% | viability, T/C [22]: 110% | viability, T/C [23]: 102% | viability, T/C [24]: 101%
